Source: patent publication US12378224B2 (Dong-A Socio Holdings Co., Ltd., priority 2016, dated 2025)

biological target: human c-MER catalytic domain (Homo sapiens (Human), UniProt Q12866); assay: TR-FRET Kinase Activity Biochemical Assay (LanthaScreen); settings: 10 uM ATP, 1 hour, kinase not given
In short: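 Activity was quantified as the ratio of 495 nm to 520 nm emission (excitation 340 nm) in a LanthaScreen TR-FRET format. The enzyme was the human c-MER catalytic domain, and the substrate was fluorescein-poly-GT. Detection used 2 nM Tb anti-phosphotyrosine antibody for 30 min after termination with 10 mM EDTA.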

human c-MER catalytic domain, sequence (Q12866 587-858): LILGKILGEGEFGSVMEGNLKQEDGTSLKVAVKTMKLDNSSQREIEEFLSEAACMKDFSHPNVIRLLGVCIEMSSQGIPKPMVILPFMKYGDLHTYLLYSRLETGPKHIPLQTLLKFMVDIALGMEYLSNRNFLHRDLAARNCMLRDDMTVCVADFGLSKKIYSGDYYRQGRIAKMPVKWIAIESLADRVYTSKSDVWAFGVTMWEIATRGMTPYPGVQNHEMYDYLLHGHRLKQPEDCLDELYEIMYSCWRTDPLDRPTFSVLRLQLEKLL

IC50 [nM] | Compound
100 to 1000 | CCSc1ccc(-c2ccc(C(=O)N3CC[C@@H](NC(=O)c4cc(-c5cnn(C)c5)cnc4N)C3)cc2)cc1 [Example 666, (R)-2-amino-N-(1-(4′-(ethylthio)-[1,1′-biphenyl]-4-carbonyl)pyrrolidin-3-yl)-5-(1-methyl-1H-pyrazol-4-yl)nicotinamide]
10 to 100 | Cn1cc(-c2cnc(N)c(C(=O)NC3(CO)CCN(C(=O)c4ccc(-c5ccccc5)cc4)C3)c2)cn1 (centres unmarked) [Example 671, N-(1-([1,1′-biphenyl]-4-carbonyl)-3-(hydroxymethyl)pyrrolidin-3-yl)-2-amino-5-(1-methyl-1H-pyrazol-4-yl)nicotinamide]
10 to 100 | Cn1cc(-c2cnc(N)c(C(=O)N[C@@H]3CCN(C(=O)c4ccc(-c5ccc(/C=C/C(=O)O)cc5)cc4)C3)c2)cn1 [Example 677, (R,E)-3-(4′-(3-(2-amino-5-(1-methyl-1H-pyrazol-4-yl)nicotinamido)pyrrolidine-1-carbonyl)-[1,1′-biphenyl]-4-yl) acrylic acid]
100 to 1000 | Cn1cc(-c2cnc(N)c(C(=O)N[C@@H]3CCN(C(=O)c4ccc(-c5ccc(CCC(=O)O)cc5)cc4)C3)c2)cn1 [Example 678, (R)-3-(4′-(3-(2-amino-5-(1-methyl-1H-pyrazol-4-yl)nicotinamido)pyrrolidine-1-carbonyl)-[1,1′-biphenyl]-4-yl) propanoic acid]
100 to 1000 | Cn1cc(-c2cnc(N)c(C(=O)N[C@H]3CN(C(=O)c4ccc(-c5ccccc5)cc4)C[C@@H]3O)c2)cn1 [Example 742, N-((3S,4S)-1-([1,1′-biphenyl]-4-carbonyl)-4-hydroxypyrrolidin-3-yl)-2-amino-5-(1-methyl-1H-pyrazol-4-yl)nicotinamide]
10 to 100 | Cn1cc(-c2cnc(N)c(C(=O)N[C@@H]3CCN(C(=O)c4ccc(-c5ccc(F)cc5Cl)cc4)C3)n2)cn1 [Example 745, (R)-3-amino-N-(1-(2′-chloro-4′-fluoro-[1,1′-biphenyl]-4-carbonyl)pyrrolidin-3-yl)-6-(1-methyl-1H-pyrazol-4-yl)pyrazine-2-carboxamide]
10 to 100 | Nc1ncc(-c2ccc(N3CCOCC3)cc2)cc1C(=O)N[C@@H]1CCN(C(=O)c2ccc(-c3ccc(F)cc3Cl)cc2)C1 [Example 782, (R)-2-amino-N-(1-(2′-chloro-4′-fluoro-[1,1′-biphenyl]-4-carbonyl)pyrrolidin-3-yl)-5-(4-morpholinophenyl)nicotinamide]
10 to 100 | Cn1cc(-c2cnc3[nH]nc(N[C@@H]4CCN(C(=O)c5ccc(-c6ccc7c(c6)CCCN7)cc5)C4)c3c2)cn1 [Example 790, (R)-(3-((5-(1-methyl-1H-pyrazol-4-yl)-1H-pyrazolo[3,4-b]pyridin-3-yl)amino)pyrrolidin-1-yl)(4-(1,2,3,4-tetrahydroquinolin-6-yl)phenyl)methanone]
100 to 1000 | Cn1cc(-c2cnc3[nH]nc(N[C@@H]4CCN(C(=O)c5ccc(Oc6ccccc6)cc5)C4)c3c2)cn1 [Example 791, (R)-(3-((5-(1-methyl-1H-pyrazol-4-yl)-1H-pyrazolo[3,4-b]pyridin-3-yl)amino)pyrrolidin-1-yl)(4-phenoxyphenyl)methanone]
100 to 1000 | Cn1cc(-c2cnc3[nH]nc(N[C@@H]4CCN(C(=O)c5ccc(-c6ccc(CN7CCOCC7)cc6)cc5)C4)c3c2)cn1 [Example 793, (R)-(3-((5-(1-methyl-1H-pyrazol-4-yl)-1H-pyrazolo[3,4-b]pyridin-3-yl)amino)pyrrolidin-1-yl)(4′-(morpholinomethyl)-[1,1′-biphenyl]-4-yl)methanone]
100 to 1000 | Cn1cc(-c2cnc(N)c(C(=O)N[C@@H]3CCN(C(=O)c4ccc(-c5ccc(C(C)(C)N)cc5)cc4)C3)c2)cn1 [Example 801, (R)-2-amino-N-(1-(4′-(2-aminopropan-2-yl)-[1,1′-biphenyl]-4-carbonyl)pyrrolidin-3-yl)-5-(1-methyl-1H-pyrazol-4-yl)nicotinamide]
10 to 100 | Cn1cc(-c2cnc(N)c(C(=O)N[C@@H]3CCN(C(=O)c4ccc(-c5ccc(Nc6ccc(N)cc6)cc5)cc4)C3)c2)cn1 [Example 815, (R)-2-amino-N-(1-(4′-((4-aminophenyl)amino)-[1,1′-biphenyl]-4-carbonyl)pyrrolidin-3-yl)-5-(1-methyl-1H-pyrazol-4-yl)nicotinamide]
100 to 1000 | CN(C)CCCNc1ncc(-c2cnn(C)c2)cc1C(=O)N[C@@H]1CCN(C(=O)c2ccc(-c3ccc(OCCCN(C)C)cc3)cc2)C1 [Example 848, (R)—N-(1-(4′-(3-(dimethylamino)propoxy)-[1,1′-biphenyl]-4-carbonyl)pyrrolidin-3-yl)-2-((3-(dimethylamino)propyl)amino)-5-(1-methyl-1H-pyrazol-4-yl)nicotinamide]
> 1000 | (R,E)-2-amino-5-(1-methyl-1H-pyrazol-4-yl)-N-(1-(4-(3-oxobut-1-en-1-yl)benzoyl)pyrrolidin-3-yl)nicotinamide [Example 681]

Compound | IC50 [nM]
Cn1cc(-c2cnc(N)c(C(=O)NC3CN(C(=O)c4cccc(-c5ccccc5)c4)C3)c2)cn1 [Example 670, N-(1-([1,1′-biphenyl]-3-carbonyl)azetidin-3-yl)-2-amino-5-(1-methyl-1H-pyrazol-4-yl)nicotinamide] | > 1000
Cn1cc(-c2cnc(N)c(C(=O)NC3(CO)CCN(C(=O)c4cccc(-c5ccccc5)c4)C3)c2)cn1 (centres unmarked) [Example 672, N-(1-([1,1′-biphenyl]-3-carbonyl)-3-(hydroxymethyl)pyrrolidin-3-yl)-2-amino-5-(1-methyl-1H-pyrazol-4-yl)nicotinamide] | > 1000
CCOC(=O)C1CN(C(=O)c2ccc(-c3ccccc3)cc2)CC1NC(=O)c1cc(-c2cnn(C)c2)cnc1N (centres unmarked) [Example 687, ethyl 1-([1,1′-biphenyl]-4-carbonyl)-4-(2-amino-5-(1-methyl-1H-pyrazol-4-yl)nicotinamido)pyrrolidine-3-carboxylate] | > 1000
COC(=O)[C@H]1C[C@@H](NC(=O)c2cc(-c3cnn(C)c3)cnc2N)CN1C(=O)c1ccc(-c2ccc(F)cc2Cl)cc1 [Example 689, methyl (2R,4R)-4-(2-amino-5-(1-methyl-1H-pyrazol-4-yl)nicotinamido)-1-(2′-chloro-4′-fluoro-[1,1′-biphenyl]-4-carbonyl)pyrrolidine-2-carboxylate] | > 1000
CCOC(=O)C1CN(C(=O)c2ccc(-c3ccc(F)cc3Cl)cc2)CC1NC(=O)c1cc(-c2cnn(C)c2)cnc1N (centres unmarked) [Example 690, ethyl 4-(2-amino-5-(1-methyl-1H-pyrazol-4-yl)nicotinamido)-1-(2′-chloro-4′-fluoro-[1,1′-biphenyl]-4-carbonyl)pyrrolidine-3-carboxylate] | > 1000
Cn1cc(-c2cnc(N)c(C(=O)N[C@@H]3CCN(C(=O)c4cccc(-c5cnn(S(=O)(=O)c6ccccc6)c5)c4)C3)c2)cn1 [Example 717, (R)-2-amino-5-(1-methyl-1H-pyrazol-4-yl)-N-(1-(3-(1-(phenylsulfonyl)-1H-pyrazol-4-yl)benzoyl)pyrrolidin-3-yl)nicotinamide] | > 1000
Cn1cc(-c2cnc(N)c(C(=O)N[C@H]3CN(C(=O)c4ccc(Br)cc4)C[C@@H]3O)c2)cn1 [Example 732, 2-amino-N-((3S,4S)-1-(4-bromobenzoyl)-4-hydroxypyrrolidin-3-yl)-5-(1-methyl-1H-pyrazol-4-yl)nicotinamide] | > 1000
Cn1cc(-c2cnc(N)c(C(=O)N[C@@H]3CN(C(=O)c4ccc(-c5ccccc5)cc4)C[C@@H]3O)c2)cn1 [Example 743, N-((3R,4S)-1-([1,1′-biphenyl]-4-carbonyl)-4-hydroxypyrrolidin-3-yl)-2-amino-5-(1-methyl-1H-pyrazol-4-yl)nicotinamide] | > 1000
CN1CCN(c2cc(-c3cnc(N)c(C(=O)N[C@@H]4CCN(C(=O)c5ccc(-c6ccc(F)cc6Cl)cc5)C4)c3)ccn2)CC1 [Example 780, (R)-6-amino-N-(1-(2′-chloro-4′-fluoro-[1,1′-biphenyl]-4-carbonyl)pyrrolidin-3-yl)-2′-(4-methylpiperazin-1-yl) -[3,4′-bipyridine]-5-carboxamide] | < 10
Cn1cc(-c2cnc3[nH]nc(N[C@@H]4CCN(C(=O)c5ccc(-c6ccc(OC7CCNCC7)cc6)cc5)C4)c3c2)cn1 [Example 792, (R)-(3-((5-(1-methyl-1H-pyrazol-4-yl)-1H-pyrazolo[3,4-b]pyridin-3-yl)amino)pyrrolidin-1-yl)(4′-(piperidin-4-yloxy)-[1,1′-biphenyl]-4-yl)methanone] | < 10
CC(/C=C/c1ccc(C(=O)N2CC[C@@H](NC(=O)c3cc(-c4cnn(C)c4)cnc3N)C2)cc1)N1CCN(C)CC1 (stereo partly drawn) [Example 822, 2-amino-5-(1-methyl-1H-pyrazol-4-yl)-N-((3R)-1-(4-((E)-3-(4-methylpiperazin-1-yl)but-1-en-1-yl)benzoyl)pyrrolidin-3-yl)nicotinamide] | < 10

biological target: BCR fusion to kinase domain of MerTK (Ba/F3-MerTK) (Homo sapiens, UniProt Q12866); assay: In Cell TAM Kinase Assay Using BaF3 Cellular System; type: cell-based, murine; settings: Ba/F3 BCR-kinase fusion proliferation, 72 hours, Cell Titer Glo; kinase not given; read-out: IC50
From the text: Three Ba/F3 cell lines (a murine IL-3 dependent pro-B cell line) expressing BCR fusions to the kinase domains of either MerTK (Ba/F3-MerTK), Axl (Ba/F3-Axl), or Tyro3 (Ba/F3-Tyro3) were purchased from Advanced Cellular Dynamics. The IL-3 independence of all 3 cell lines was confirmed. After thawing, the 3 Ba/F3 cell lines were split and maintained in cell culture media, which consisted of RPMI-1640-HEPES (Thermo-Cat #22400-089) with 1× Glutamax (Thermo-Cat #35050-061) and 10% FBS (Sigma-Cat #F4135 (500 ml), at a cell density range of 0.05×10^6−1×10^6 cells/mL 4 days before used in the routine screen. Compound plates were prepared using Nunc™ white 384-well optical bottom plates (ThermoFisher, USA) with compound in 25 nL dimethyl sulfoxide in each well. For routine assays, each of the 3 Ba/F3 cell lines was seeded at 1,000 cells per well with 25 µL of cell culture media directly into 384-well compound plates and incubated for 72 hours. Cell proliferation was then measured by adding 25 μL of Cell Titer Glo 2.0 (Promega, USA). After incubating with Cell Titer Glo at room temperature for 30 mins, the luminescence intensity, which quantifies the cell viability, was measured using an Envision™ plate reader (PerkinElmer, USA). […] In the presence of IL-3, the proliferation of the Ba/F3-Tyro3 cells is no longer dependent on the Tyro3 kinase activity.

BCR fusion to kinase domain of MerTK (Ba/F3-MerTK), sequence (Q12866 21-999 limits assumed, stated change not applied): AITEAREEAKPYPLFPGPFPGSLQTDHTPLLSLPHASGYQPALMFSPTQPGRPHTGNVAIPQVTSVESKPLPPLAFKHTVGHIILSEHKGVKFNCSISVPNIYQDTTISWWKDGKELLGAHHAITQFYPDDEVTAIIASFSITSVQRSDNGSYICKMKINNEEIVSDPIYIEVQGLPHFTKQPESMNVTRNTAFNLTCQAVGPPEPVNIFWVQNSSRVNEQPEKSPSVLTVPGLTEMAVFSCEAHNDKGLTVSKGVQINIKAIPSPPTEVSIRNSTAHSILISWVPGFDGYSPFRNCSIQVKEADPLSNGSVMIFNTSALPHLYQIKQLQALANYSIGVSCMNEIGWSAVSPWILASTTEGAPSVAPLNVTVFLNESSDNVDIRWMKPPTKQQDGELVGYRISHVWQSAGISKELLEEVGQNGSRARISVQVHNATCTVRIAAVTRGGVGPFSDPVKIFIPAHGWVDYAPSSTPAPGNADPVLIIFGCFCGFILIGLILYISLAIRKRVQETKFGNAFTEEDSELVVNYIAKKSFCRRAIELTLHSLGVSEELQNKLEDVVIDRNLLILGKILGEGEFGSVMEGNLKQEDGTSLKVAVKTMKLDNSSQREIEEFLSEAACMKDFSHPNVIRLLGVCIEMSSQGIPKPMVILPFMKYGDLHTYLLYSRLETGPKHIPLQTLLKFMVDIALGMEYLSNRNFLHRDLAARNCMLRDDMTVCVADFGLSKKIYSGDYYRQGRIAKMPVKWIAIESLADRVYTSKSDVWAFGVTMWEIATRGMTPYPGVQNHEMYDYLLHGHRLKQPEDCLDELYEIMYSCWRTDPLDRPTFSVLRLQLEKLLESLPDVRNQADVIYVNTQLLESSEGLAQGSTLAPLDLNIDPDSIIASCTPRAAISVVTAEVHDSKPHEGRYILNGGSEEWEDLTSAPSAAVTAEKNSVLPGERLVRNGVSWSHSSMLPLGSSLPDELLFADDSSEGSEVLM

IC50 [nM] | Compound
> 1000 | Cn1cc(-c2cnc(N)c(C(=O)N[C@@H]3CCN(C(=O)c4ccc5cc(OCC6CCNCC6)ccc5c4)C3)c2)cn1 [Example 761]
